Each structure is given as a SMILES string.

As a reminder, the IC50 is the point on the concentration scale where inhibition reaches its midpoint. Lower therefore signals inhibition by little substance.

Test [1] deals with T1, AXL (Homo sapiens, UniProt P30530).
T1 sequence (P30530 26-894): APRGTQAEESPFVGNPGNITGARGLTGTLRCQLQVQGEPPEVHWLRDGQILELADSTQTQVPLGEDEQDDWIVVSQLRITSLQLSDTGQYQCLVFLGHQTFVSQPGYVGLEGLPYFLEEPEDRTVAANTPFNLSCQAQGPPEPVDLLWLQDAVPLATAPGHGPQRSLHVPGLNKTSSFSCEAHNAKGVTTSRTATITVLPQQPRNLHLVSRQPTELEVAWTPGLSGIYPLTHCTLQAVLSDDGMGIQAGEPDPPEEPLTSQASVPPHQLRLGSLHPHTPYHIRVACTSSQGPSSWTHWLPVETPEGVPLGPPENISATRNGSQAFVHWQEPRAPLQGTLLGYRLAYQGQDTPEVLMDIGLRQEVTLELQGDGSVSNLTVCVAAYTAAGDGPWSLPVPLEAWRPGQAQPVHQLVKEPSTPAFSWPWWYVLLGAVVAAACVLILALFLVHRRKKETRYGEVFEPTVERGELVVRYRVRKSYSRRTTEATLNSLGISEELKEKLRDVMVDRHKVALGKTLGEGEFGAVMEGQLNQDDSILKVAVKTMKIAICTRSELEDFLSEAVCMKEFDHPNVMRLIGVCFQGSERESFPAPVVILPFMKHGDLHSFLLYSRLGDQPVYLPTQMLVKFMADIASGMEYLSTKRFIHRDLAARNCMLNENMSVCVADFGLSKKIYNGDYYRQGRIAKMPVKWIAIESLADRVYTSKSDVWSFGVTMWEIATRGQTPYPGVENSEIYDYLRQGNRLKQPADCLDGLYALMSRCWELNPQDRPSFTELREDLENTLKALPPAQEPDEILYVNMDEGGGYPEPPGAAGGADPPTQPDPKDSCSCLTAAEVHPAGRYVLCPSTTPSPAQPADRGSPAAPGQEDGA
Description: TR-FRET kinase activity assay, AXL. The test is classed as biochemical. The conditions noted are these: ATP at Km, 60 minutes. The gist of the method:
(§1)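 Enzyme, fluorescent peptide substrate and compound were mixed, and the reaction was started with ATP at each kinase's Km, in 50 mM HEPES pH 7.5, 10 mM MgCl2, 1 mM EGTA, 0.01% Brij 35, 1 mM DTT at RT. After 60 minutes EDTA quench, Eu-labelled phospho-specific antibody was added for 30 minutes, and IC50 was derived from TR-FRET signal loss.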
(TR-FRET usually uses a lanthanide donor and a delayed reading to cut background.)

Test [2] has as its target T2, FLT3 (Homo sapiens, UniProt P36888).
T2 sequence (P36888 27-993): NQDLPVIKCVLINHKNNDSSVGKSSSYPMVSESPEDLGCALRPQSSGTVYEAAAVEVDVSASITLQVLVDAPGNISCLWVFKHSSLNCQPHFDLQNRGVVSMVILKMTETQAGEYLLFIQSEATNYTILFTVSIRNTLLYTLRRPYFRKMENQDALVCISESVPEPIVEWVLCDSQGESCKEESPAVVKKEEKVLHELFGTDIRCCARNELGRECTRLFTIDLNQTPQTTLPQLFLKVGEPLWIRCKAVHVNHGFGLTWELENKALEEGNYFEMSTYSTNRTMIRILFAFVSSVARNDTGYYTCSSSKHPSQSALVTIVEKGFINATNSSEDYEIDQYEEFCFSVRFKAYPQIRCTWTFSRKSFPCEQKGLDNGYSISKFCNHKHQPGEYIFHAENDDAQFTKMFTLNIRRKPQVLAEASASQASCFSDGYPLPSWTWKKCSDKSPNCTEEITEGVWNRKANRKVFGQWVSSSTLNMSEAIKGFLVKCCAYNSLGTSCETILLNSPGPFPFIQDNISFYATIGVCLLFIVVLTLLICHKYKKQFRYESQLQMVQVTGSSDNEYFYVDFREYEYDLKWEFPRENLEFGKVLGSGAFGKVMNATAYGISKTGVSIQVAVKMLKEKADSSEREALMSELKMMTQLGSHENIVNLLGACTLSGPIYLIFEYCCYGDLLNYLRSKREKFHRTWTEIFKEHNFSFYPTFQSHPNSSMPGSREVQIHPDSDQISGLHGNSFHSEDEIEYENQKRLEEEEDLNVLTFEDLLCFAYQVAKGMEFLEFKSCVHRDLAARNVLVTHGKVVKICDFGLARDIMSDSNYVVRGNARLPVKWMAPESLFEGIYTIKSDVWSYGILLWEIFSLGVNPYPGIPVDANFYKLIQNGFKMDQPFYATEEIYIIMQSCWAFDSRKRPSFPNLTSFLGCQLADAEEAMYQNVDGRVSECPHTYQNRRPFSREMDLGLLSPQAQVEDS
Put plainly: TR-FRET kinase activity assay, FLT3. The conditions noted are these: ATP at Km, 60 minutes. The class given is biochemical. The gist of the method:
as §1

For `COC[C@H](C)Nc1ncc2c(-c3ccnc(O[C@H]4CCN(C)C4)c3)cc([C@H]3CC[C@H](O)CC3)n2n1` [Compound 400], the IC50 in test [1] is at most 100 nM; in test [2] it was 100 to 1000 nM.

As to `COC[C@H](C)Nc1ncc2c(-c3cnn(C[C@@H]4CCC(=O)N4)c3)cc([C@H]3CC[C@H](O)CC3)n2n1` [Compound 368], the figures for the IC50 in test [1] and in test [2] were at most 100 nM and 100 to 1000 nM, respectively.

In the case of `COC[C@H](C)Nc1ncc2c([C@@H]3CCCN(c4ccnc(C)n4)C3)cc([C@H]3CC[C@H](O)CC3)n2n1` [Compound 378], the IC50 in test [1] and in test [2] was 1000 to 10000 nM each time.

For `C[C@@H](CC(F)F)Nc1ncc2c(-c3cnn(C4COC4)c3)cc([C@H]3CC[C@H](O)CC3)n2n1` [Compound 351], the IC50 in test [1] and in test [2] was at most 100 nM throughout.

Regarding `COC[C@H](C)Nc1ncc2c(-c3cc([C@H]4CC[C@H](O)CC4)n4nc(N[C@@H](C)COC)ncc34)cc([C@H]3CC[C@H](O)CC3)n2n1` [Compound 349], the IC50 in test [1] and in test [2] was 1000 to 10000 nM in each case.

Consider `COC[C@H](C)Nc1ncc2c(-c3cnn(CC4CCCO4)c3)cc([C@H]3CC[C@H](O)CC3)n2n1` (stereo partly shown) [Compound 380], for which the figures for the IC50 in test [1] and in test [2] were at most 100 nM and 100 to 1000 nM, respectively.

Regarding `COC[C@H](C)Nc1ncc2c([C@H]3CCN(S(C)(=O)=O)C3)cc([C@H]3CC[C@H](O)CC3)n2n1` [Compound 376], the IC50 fell in the range of 100 to 1000 nM in test [1] and 1000 to 10000 nM in test [2].

For `CNOc1cc(-c2cc([C@H]3CC[C@H](O)CC3)n3nc(N[C@@H](C)COC)ncc23)ccn1` [Compound 361], the IC50 is at most 100 nM in test [1] and 1000 to 10000 nM in test [2].

Regarding `CC1(Nc2ncc3c(-c4cnn(C5COC5)c4)cc(C4CCC(O)CC4)n3n2)COC1` (stereo not shown) [Compound 399], the figures for the IC50 in test [1] and in test [2] were at most 100 nM and 100 to 1000 nM, respectively.

For the compound `CC[C@H](C)Nc1ncc2c(-c3cncc(S(C)(=O)=O)c3)cc([C@H]3CC[C@H](O)CC3)n2n1` [Compound 119], the concentration for half-maximal inhibition (IC50) in test [1] lay within 100 to 1000 nM; in test [2] it was 1000 to 10000 nM.

With `CC(CC(F)F)Nc1ncc2c(-c3ccc(CN4CCN(C)CC4)cc3)cc(C3CCC(O)CC3)n2n1` (stereo not shown) [Compound 352], the IC50 in test [1] and in test [2] was at most 100 nM each time.

Consider `COC[C@H](C)Nc1ncc2c(-c3cnn(C4(C(=O)NC(C)C)CC4)c3)cc([C@H]3CC[C@H](O)CC3)n2n1` [Compound 415], for which the IC50 in test [1] is at most 100 nM; in test [2], 1000 to 10000 nM.

Regarding `COC[C@H](C)Nc1ncc2c(-c3cnn([C@H]4CCN(C(C)=O)C4)c3)cc([C@H]3CC[C@H](O)CC3)n2n1` [Compound 397], the values for the IC50 in test [1] and in test [2] were at most 100 nM and 100 to 1000 nM, respectively.

For `COC[C@H](C)Nc1ncc2c(-c3cnn([C@@H]4CCC(C(=O)OC(C)(C)C)C4)c3)cc([C@H]3CC[C@H](O)CC3)n2n1` (stereo partly shown) [Compound 364], the half-inhibitory concentration (IC50) in test [1] and in test [2] was at most 100 nM in each case.

Turning to `COC[C@H](C)Nc1ncc2c([C@@H]3CCN(S(C)(=O)=O)C3)cc([C@H]3CC[C@H](O)CC3)n2n1` [Compound 375], the IC50 in test [1] lay in the range of 100 to 1000 nM; in test [2] it was 1000 to 10000 nM.

As for `CNc1cc(-c2cc([C@H]3CC[C@H](O)CC3)n3nc(N[C@@H](C)COC)ncc23)ccn1` [Compound 354], the results for the half-inhibitory concentration (IC50) in test [1] and in test [2] were at most 100 nM and 100 to 1000 nM, respectively.

`COC[C@H](C)Nc1ncc2c(-c3ccc(CN4CCN(C)CC4)cc3)cc([C@H]3CC[C@H](O)CC3)n2n1` (single isomer, unassigned) [Compound 124]: the IC50 in test [1] is at most 100 nM; in test [2] it was 100 to 1000 nM.

Turning to `CCC(C)Nc1ncc2c(C)cc(C3CCC(O)CC3)n2n1` (stereo not shown) [Compound 123], the IC50 in test [1] and in test [2] was 1000 to 10000 nM each time.

As to `COC[C@H](C)Nc1ncc2c(-c3cnn([C@@H]4CCN(C(C)=O)C4)c3)cc([C@H]3CC[C@H](O)CC3)n2n1` [Compound 396], the IC50 in test [1] is at most 100 nM; in test [2], 100 to 1000 nM.

`CNC(=O)c1cc(-c2cc([C@H]3CC[C@H](O)CC3)n3nc(N[C@@H](C)COC(F)F)ncc23)cc(C)n1` [Compound 385]: the IC50 in test [1] lay within 100 to 1000 nM; in test [2] it was 1000 to 10000 nM.

Consider `C[C@@H](CC(F)(F)F)Nc1ncc2c(-c3ccnc(N4CCOCC4)c3)cc([C@H]3CC[C@H](O)CC3)n2n1` [Compound 346], for which the IC50 in test [1] and in test [2] was at most 100 nM in each case.

`O[C@H]1CC[C@H](c2cc(-c3ccnc(N4CCOCC4)c3)c3cnc(N[C@H]4CCOC4)nn32)CC1` [Compound 362]: the IC50 in test [1] and in test [2] was at most 100 nM in each case.

As to `C[C@@H](CC(F)(F)F)Nc1ncc2c(C3=CCN(C(=O)OC(C)(C)C)CC3)cc([C@H]3CC[C@H](O)CC3)n2n1` [Compound 412], the IC50 in test [1] and in test [2] was at most 100 nM throughout.

As to `COCC(C)Nc1ncc2c(C3CCN(c4ccnc(C)n4)C3)cc(C3CCC(O)CC3)n2n1` (stereo not shown) [Compound 374], the half-maximal inhibitory concentration (IC50) is at most 100 nM in test [1] and 1000 to 10000 nM in test [2].

As for `COC[C@H](C)Nc1ncc2c(-c3cnn([C@H]4CCNC4=O)c3)cc([C@H]3CC[C@H](O)CC3)n2n1` [Compound 348], the IC50 was at most 100 nM in test [1] and 100 to 1000 nM in test [2].

Regarding `CC[C@H](C)Nc1ncc2c(-c3cncc(S(C)(=O)=O)c3)cc([C@H]3CC[C@@H](O)CC3)n2n1` [Compound 120], the IC50 in test [1] was 100 to 1000 nM; in test [2], 1000 to 10000 nM.

Regarding `COC[C@H](C)Nc1ncc2c(-c3cnn(CC4CCOCC4)c3)cc([C@H]3CC[C@H](O)CC3)n2n1` [Compound 392], the IC50 in test [1] and in test [2] was at most 100 nM in each case.

As for `COC[C@H](C)Nc1ncc2c(-c3ccnc(O[C@@H]4CCCNC4)c3)cc([C@H]3CC[C@H](O)CC3)n2n1` [Compound 390], the figures for the IC50 in test [1] and in test [2] were at most 100 nM and 100 to 1000 nM, respectively.

Consider `COCC(C)Nc1ncc2c(-c3cnn(CC4CCCO4)c3)cc(C3CCC(O)CC3)n2n1` (stereo not shown) [Compound 379], for which the IC50 in test [1] is at most 100 nM; in test [2], 100 to 1000 nM.

Take `C[C@@H](CN(C)C)Nc1ncc2c(-c3cnn(C4COC4)c3)cc([C@H]3CC[C@H](O)CC3)n2n1` [Compound 387]: the IC50 in test [1] and in test [2] was 1000 to 10000 nM in each case.

Turning to `COC[C@H](C)Nc1ncc2c(-c3cnn(CS(C)(=O)=O)c3)cc([C@H]3CC[C@H](O)CC3)n2n1` [Compound 419], the IC50 in test [1] is at most 100 nM; in test [2], 100 to 1000 nM.

`COC[C@H](C)Nc1ncc2c(-c3ccnc(O[C@H]4CCCNC4)c3)cc([C@H]3CC[C@H](O)CC3)n2n1` [Compound 389]: the results for the IC50 in test [1] and in test [2] were at most 100 nM and 100 to 1000 nM, respectively.

Consider `COC[C@H](C)Nc1ncc2c(-c3cnn(C(C)(C)C(=O)N4C[C@@H](C)O[C@H](C)C4)c3)cc([C@H]3CC[C@H](O)CC3)n2n1` [Compound 367], for which the half-inhibitory concentration (IC50) is at most 100 nM in test [1] and 1000 to 10000 nM in test [2].

Turning to `CNC(=O)c1cc(-c2cc([C@H]3CC[C@H](O)CC3)n3nc(N[C@@H](C)COC(F)F)ncc23)ccn1` [Compound 411], the IC50 in test [1] is at most 100 nM; in test [2], 100 to 1000 nM.

In the case of `COC[C@H](C)Nc1ncc2c(-c3ccnc(OC4CCNCC4)c3)cc([C@H]3CC[C@H](O)CC3)n2n1` [Compound 369], the IC50 in test [1] was at most 100 nM; in test [2], 100 to 1000 nM.

The record behind these values is patent publication US11040981B2, “Pyrrolotriazine compounds and methods of inhibiting TAM kinases” (Syros Pharmaceuticals, Inc., priority 2017, dated 2021).
